Experiment [1] deals with T1, serotonin transporter (Rattus norvegicus, UniProt P31652).
T1 construct: frontal cortical membranes prepared from male Sprague Dawley rats; from tissue; host or cells: rat frontal cortex membranes (male Sprague Dawley)
Briefly: 3H-paroxetine binding to rat frontal cortical membranes, affinity for the serotonin transporter. Conditions: 3H-paroxetine 0.1 nM, male Sprague Dawley rat frontal cortical membranes; read-out: 5HT Uptake r5HT-T Ki (nM) (Example 18). The protocol:
A protocol similar to that used by Cheetham et al. (Neuropharmacol. 32:737-743, 1993) was used to determine the affinity of compounds for the serotonin transporter (i.e., by determining the relative ability of a compound to displace ^3H-paroxetine from male rat frontal cortical membranes). Briefly, frontal cortical membranes prepared from male Sprague Dawley rats were incubated with ^3H-paroxetine (0.1 nM) for 60 minutes at 25° C. All tubes also contained either vehicle, test compound (one to eight concentrations), or a saturating concentration of fluoxetine (10 μM) to define […]. All reactions were terminated by the addition of ice cold Tris buffer followed by rapid filtration using a Tom Tech filtration device to separate bound from free ^3H-paroxetine. Bound radioactivity was quantitated using a Wallac 1205 Beta Plate® counter. Nonlinear regression analysis was used to determine IC50 values which were converted to Ki values using the method of Cheng and Prusoff (Biochem. Pharmacol. 22: 3099-3108, 1973); […].
This affinity translates to the blockade of 5-HT uptake, i.e., the ability of a compound increase synaptic 5-HT levels and to act like an SSRI.

The target in experiment [2] is T2, Human 5-HT1A Receptor (Homo sapiens, UniProt P08908).
T2 construct: expressed in transfected cells; host or cells: CHO cells (Chinese hamster ovary), stably transfected
T2 sequence (P08908 1-422): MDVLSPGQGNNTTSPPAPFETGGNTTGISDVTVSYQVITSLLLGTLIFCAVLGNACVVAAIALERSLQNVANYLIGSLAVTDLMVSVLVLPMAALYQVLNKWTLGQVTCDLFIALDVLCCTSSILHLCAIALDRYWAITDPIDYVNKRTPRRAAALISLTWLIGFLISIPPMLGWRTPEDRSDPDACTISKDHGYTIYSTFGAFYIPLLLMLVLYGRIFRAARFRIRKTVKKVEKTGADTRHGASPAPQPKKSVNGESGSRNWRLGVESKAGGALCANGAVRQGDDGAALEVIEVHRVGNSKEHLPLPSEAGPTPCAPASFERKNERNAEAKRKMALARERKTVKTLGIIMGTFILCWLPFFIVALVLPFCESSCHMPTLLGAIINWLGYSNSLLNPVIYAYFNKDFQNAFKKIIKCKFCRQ
Briefly: cAMP radioimmunoassay (RIA) in human 5-HT1A receptor cell line, inhibition of forskolin stimulated cAMP. The experiment is classed as cell-based. As to conditions: forskolin (1 μM) stimulated cAMP, stably transfected CHO cells; read-out: h5HT1A cAMP EC50 (nM) (Example 19). On the procedure:
Certain effects of 5-HT (e.g., certain effects mediated by the interaction of 5-HT with the 5-HT1A receptor) are mediated by cAMP. To test the ability of compounds described herein to modulate cAMP, a radioimmunoassay (RIA) method was used. Briefly, stably transfected CHO cells were grown in DMEM containing 10% heat inactivated FBS and non-essential amino acids. The cells were plated at a density of 10^6 cells per well in a 96-well plate and incubated for 2 days in a CO2 incubator. On the second day, the medium was replaced with 0.1 ml Krebs and incubated 15 minutes at 37° C. The medium was then replaced with Krebs buffer containing 500 μM isobutylmethylxanthine (IBMX) and incubated for approximately 5 minutes at 37° C. Wells were treated with forskolin (1 μM final concentration) followed immediately by test compound (0.1 and 1 μM for the initial screen) and incubated for an additional 10 minutes at 37° C. The reaction was terminated by removal of the medium and the addition of 0.5 ml ice cold assay buffer (supplied in the RIA kit). Plates were stored at −20° C. prior to assessment of cAMP formation by RIA. The cAMP kit was obtained from Amersham (Piscataway, N.J.) and the RIA was performed as per the kit instructions. In the initial screen, percent inhibition of forskolin stimulated cAMP was measured. […] These compounds behaved as either full agonists or partial agonists. 5-HT, BMY 7378, buspirone, and 8-OH-DPAT were used as reference compounds.
All compounds tested inhibited the forskolin-stimulated increase in […].

Experiment [3] addresses T3, Human 5-HT Transporter (Homo sapiens, UniProt P31645).
T3 construct: endogenous in cells; host or cells: Jar cells (human carcinoma cell line), treated with staurosporine
Briefly: Inhibition of 3H-5-HT uptake by Jar cells possessing the human 5-HT transporter. It is filed as cell-based. As to conditions: Jar cells treated with staurosporine, read-out: 5HT Uptake h5HT-T IC50 (nM) (Example 20). On the procedure:
[Staurosporine greatly increases the expression of the 5-HT-Transporter.] On the day of assay, vehicle, excess of fluoxetine, or test compound was added to various wells on the plate. ^3H-5-HT was then aliquoted into all wells and the samples were incubated at 37° C. for 5 minutes. The wells were then washed with ice cold 50 mM Tris HCl (pH 7.4) buffer and aspirated to remove free ^3H-5-HT. 25 μL 0.25 M NaOH was then added to each well to lyse the cells and 75 μL scintillation cocktail (Microscint™ 20) was added prior to quantitation on a Packard TopCount® machine. Tubes with vehicle represent total possible uptake, radioactivity counted in tubes with excess fluoxetine represent nonspecific binding/uptake and were subtracted from the total possible uptake to give total possible specific uptake. This nonspecific binding (usual low in number) was then subtracted from the counts obtained in wells with various test compounds (or different concentrations of a test compound) resulting in uptake in the presence of drug. Specific uptake was then expressed as a percent of control values and was analyzed using nonlinear regression analysis (Prizm) to determine IC50 values. If the compound was active in inhibiting 5-HT uptake, its counts will be close to that obtained with fluoxetine.
This blockade, in vivo, would be expected to result in an increase in extracellular 5-HT concentrations.

Experiment [4] deals with T2, Human 5-HT1A Receptor. Briefly: 8-OH-DPAT binding, human 5-HT1A receptor cell line (displacement of [3H]-OHDPAT, stably transfected CHO cells). As to conditions: [3H]-OHDPAT 1.5 nM, read-out: h5HT1A Affinity Ki (nM) (Example 17). The protocol:
Affinity for the serotonin 5-HT1A receptor was established by testing each compound's ability to displace [^3H]-OHDPAT (dipropylaminotetralin) from the 5-HT1A serotonin receptor following a modification of the procedure of Hall et al., J. Neurochem. 44:1685-1696 (1985). Stably transfected Chinese hamster ovary (CHO) cells were plated and grown in Dulbecco's Modified Eagle's Medium (DMEM) containing 10% heat inactivated fetal bovine serum (FBS) and non-essential amino acids. Cells were scraped off the plate, transferred to centrifuge tubes, and washed twice by centrifugation (2000 rpm for 10 minutes at 4° C.) in buffer (50 mM Tris, pH 7.5). The resulting pellets were aliquoted and stored at −80° C. On the day of assay, the cells were thawed on ice, and re-suspended in buffer. The binding assay was performed in a 96-well microtiter plate in a total volume of about 250 μL. Non-specific binding was determined in the presence of 10 μM 5-HT; the final radio ligand concentration was 1.5 nM. Following a 30 minute incubation at room temperature, the reaction was terminated by the addition of ice cold buffer and rapid filtration through a GF/B filter presoaked for 30 minutes in 0.5% polyethyleneimine (PEI). Compounds were initially tested in a single point assay to determine percent inhibition at 1 μM, 0.1 μM, and 0.01 μM. Subsequently, Ki values were determined for compounds defined to be active. Percent inhibition Ki was determined by RFComp (Lundon Software, Chagrin Falls, Ohio), with serotonin and 8-OH-DPAT as the reference compounds.
High affinity for the receptor is evidence of a compound's ability to directly modulate activity at the 5-HT1A receptor.
In general terms: Loss of bound radioactivity is the signal in a displacement assay; it reports binding, not function.

T1 sequence (P31652 whole entry): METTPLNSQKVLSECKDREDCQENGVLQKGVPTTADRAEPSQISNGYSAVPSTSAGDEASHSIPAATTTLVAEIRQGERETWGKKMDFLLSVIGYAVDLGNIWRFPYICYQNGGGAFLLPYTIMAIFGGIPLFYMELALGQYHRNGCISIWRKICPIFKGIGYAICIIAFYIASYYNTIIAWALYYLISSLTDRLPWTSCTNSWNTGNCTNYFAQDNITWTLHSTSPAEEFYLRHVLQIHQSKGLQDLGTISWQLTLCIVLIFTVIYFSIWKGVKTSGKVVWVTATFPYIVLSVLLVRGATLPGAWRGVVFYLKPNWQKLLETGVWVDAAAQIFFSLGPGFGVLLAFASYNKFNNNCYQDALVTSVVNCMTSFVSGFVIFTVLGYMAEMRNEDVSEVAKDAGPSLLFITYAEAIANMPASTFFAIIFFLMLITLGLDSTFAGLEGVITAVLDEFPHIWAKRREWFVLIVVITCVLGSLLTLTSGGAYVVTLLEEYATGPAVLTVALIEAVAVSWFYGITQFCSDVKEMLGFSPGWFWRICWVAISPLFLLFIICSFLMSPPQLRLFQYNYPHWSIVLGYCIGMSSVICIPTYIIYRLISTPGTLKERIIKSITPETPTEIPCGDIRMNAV
T3 sequence (P31645 whole entry): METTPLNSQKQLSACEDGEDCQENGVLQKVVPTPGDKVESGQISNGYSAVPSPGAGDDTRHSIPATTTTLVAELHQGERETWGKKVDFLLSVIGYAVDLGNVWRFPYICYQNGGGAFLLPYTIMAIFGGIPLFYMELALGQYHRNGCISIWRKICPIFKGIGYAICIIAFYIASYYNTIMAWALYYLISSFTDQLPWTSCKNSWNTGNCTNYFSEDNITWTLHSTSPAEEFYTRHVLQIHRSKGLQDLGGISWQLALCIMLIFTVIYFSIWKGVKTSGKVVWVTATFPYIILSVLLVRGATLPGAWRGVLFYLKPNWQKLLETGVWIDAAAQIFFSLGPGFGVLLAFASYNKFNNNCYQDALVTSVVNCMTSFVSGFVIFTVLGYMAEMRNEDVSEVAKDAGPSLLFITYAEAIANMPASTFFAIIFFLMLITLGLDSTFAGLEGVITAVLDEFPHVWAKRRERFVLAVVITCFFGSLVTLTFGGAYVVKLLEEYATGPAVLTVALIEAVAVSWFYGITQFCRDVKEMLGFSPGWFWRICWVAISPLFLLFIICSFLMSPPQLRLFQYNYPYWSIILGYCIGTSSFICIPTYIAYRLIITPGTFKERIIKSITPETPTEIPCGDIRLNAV

Consider `Cc1ccc2c3c(ccc2n1)OC[C@H](CNCCCN1CCc2ccc(F)cc21)O3` [Example 3, 3-(6-fluoro-2,3-dihydro-1H-indol-1-yl)-N-{[(2S)-8-methyl-2,3-dihydro[1,4]dioxino[2,3-f]quinolin-2-yl]methyl}propan-1-amine], for which the Ki (in general, a dissociation constant, usually derived from enzyme kinetics or from competition with a known ligand) in experiment [1] was 2.8 nM; in experiment [4], 0.35 nM. Besides, the half-maximal effective concentration (EC50) (as a rule, the concentration at which the effect is half-maximal) in experiment [2] came out at 1.88 nM. In addition, in experiment [3], the IC50 (as a rule, the concentration needed to halve the response being measured) amounted to 107 nM.

As to `Cc1ccc2c3c(ccc2n1)OC[C@H](CNCCCN1CCCc2cc(F)ccc21)O3` [Example 8, 3-(6-fluoro-3,4-dihydroquinolin-1(2H)-yl)-N-{[(2S)-8-methyl-2,3-dihydro[1,4]dioxino[2,3-f]quinolin-2-yl]methyl}propan-1-amine], the Ki amounted to 7.2 nM in experiment [1] and 1.44 nM in experiment [4]. The EC50 in experiment [2] was found to be 1.48 nM. In addition, the IC50 in experiment [3] is 76.9 nM.

On to `Cc1ccc2c3c(ccc2n1)OC[C@H](CNCCCN1CCc2cc(F)ccc21)O3` [Example 2, 3-(5-fluoro-2,3-dihydro-1H-indol-1-yl)-N-{[(2S)-8-methyl-2,3-dihydro[1,4]dioxino[2,3-f]quinolin-2-yl]methyl}propan-1-amine], for which the inhibitory constant (Ki) in experiment [1] is 10.2 nM; in experiment [4], 0.6 nM. In experiment [2], the EC50 came to 3.76 nM.

`Cc1ccc2c3c(ccc2n1)OC[C@H](CNCCCN1CCCc2ccc(F)cc21)O3` [Example 4, 3-(7-fluoro-3,4-dihydroquinolin-1(2H)-yl)-N-{[(2S)-8-methyl-2,3-dihydro[1,4]dioxino[2,3-f]quinolin-2-yl]methyl}propan-1-amine]: the inhibition constant Ki was 7.7 nM in experiment [1] and 0.27 nM in experiment [4]. Further, the EC50 in experiment [2] came to 1.57 nM. Moreover, the IC50 in experiment [3] worked out at 32.9 nM.

As to `Cc1ccc2c3c(ccc2n1)OC[C@H](CNCCCN1CCCc2ccccc21)O3` [Example 1, 3-(3,4-dihydroquinolin-1(2H)-yl)-N-{[(2S)-8-methyl-2,3-dihydro[1,4]dioxino[2,3-f]quinolin-2-yl]methyl}propan-1-amine], the inhibition constant (Ki) amounted to 13 nM in experiment [1] and 2.45 nM in experiment [4]. Moreover, the 50% effective concentration (EC50) in experiment [2] was determined as 1.58 nM. In addition, the 50% inhibitory concentration (IC50) in experiment [3] is 150 nM.

With `Cc1ccc2c3c(ccc2n1)OC[C@H](CNCCCN1CCc2ccccc21)O3` [Example 5, 3-(2,3-dihydro-1H-indol-1-yl)-N-{[(2S)-8-methyl-2,3-dihydro[1,4]dioxino[2,3-f]quinolin-2-yl]methyl}propan-1-amine], the results for the Ki in experiment [1] and in experiment [4] were 21.1 nM and 0.62 nM, respectively. Moreover, the EC50 in experiment [2] is 3.44 nM. In experiment [3], the IC50 stood at 180 nM.

Consider `Cc1ccc2c3c(ccc2n1)OC[C@H](CNCCCN1CCCc2cc(F)c(Cl)cc21)O3` [Example 10, 3-(7-chloro-6-fluoro-3,4-dihydroquinolin-1(2H)-yl)-N-{[(2S)-8-methyl-2,3-dihydro[1,4]dioxino[2,3-f]quinolin-2-yl]methyl}propan-1-amine], for which the inhibitory constant (Ki) in experiment [1] was determined as 116 nM; in experiment [4], 3.22 nM. The 50% effective concentration (EC50) in experiment [2] was 1.95 nM.

As to `Cc1ccc2c3c(ccc2n1)OC[C@H](CNCCCCN1CCc2ccc(F)cc21)O3` [Example 14, 4-(6-fluoro-2,3-dihydro-1H-indol-1-yl)-N-{[(2S)-8-methyl-2,3-dihydro[1,4]dioxino[2,3-f]quinolin-2-yl]methyl}butan-1-amine], the Ki was found to be 3.3 nM in experiment [1] and 0.19 nM in experiment [4]. The 50% effective concentration (EC50) in experiment [2] worked out at 1.66 nM. For the same compound, the IC50 in experiment [3] came to 161 nM.

As for `Cc1ccc2c3c(ccc2n1)OC[C@H](CNCCCN(C)c1ccccc1Cl)O3` [Example 13, N-(2-chlorophenyl)-N-methyl-N′-{[(2S)-8-methyl-2,3-dihydro[1,4]dioxino[2,3-f]quinolin-2-yl]methyl}propane-1,3-diamine], the Ki in experiment [1] stood at 3.5 nM; in experiment [4], 0.57 nM. The EC50 in experiment [2] came to 2.49 nM.

Turning to `Cc1ccc2c3c(ccc2n1)OC[C@H](CNCCCN1CCOc2ccccc21)O3` [Example 6, 3-(2,3-dihydro-4H-1,4-benzoxazin-4-yl)-N-{[(2S)-8-methyl-2,3-dihydro[1,4]dioxino[2,3-f]quinolin-2-yl]methyl}propan-1-amine], the results for the Ki in experiment [1] and in experiment [4] were 40.8 nM and 2.58 nM, respectively. The concentration giving a half-maximal response (EC50) in experiment [2] was 0.77 nM.

On to `Cc1ccc2c3c(ccc2n1)OC[C@H](CNCCCN1CCCCc2ccccc21)O3` [Example 12, N-{[(2S)-8-methyl-2,3-dihydro[1,4]dioxino[2,3-f]quinolin-2-yl]methyl}-3-(2,3,4,5-tetrahydro-1H-1-benzazepin-1-yl)propan-1-amine], for which the Ki in experiment [1] was determined as 36.2 nM; in experiment [4], 0.79 nM. Further, the EC50 in experiment [2] turned out to be 3.06 nM.

For `Cc1ccc2c3c(ccc2n1)OC[C@H](CNCCCN1CCCc2cc(F)cc(F)c21)O3` [Example 9, 3-(6,8-difluoro-3,4-dihydroquinolin-1(2H)-yl)-N-{[(2S)-8-methyl-2,3-dihydro[1,4]dioxino[2,3-f]quinolin-2-yl]methyl}propan-1-amine], the Ki in experiment [1] worked out at 27 nM; in experiment [4], 1.41 nM. The 50% effective concentration (EC50) in experiment [2] turned out to be 1.18 nM.

For the origin of these results see US20080139546A1, “Tetrahydroquinoline, indoline, and related aniline derivatives of heterocycle-fused benzodioxan methylamines” (Wyeth, priority 2006, published 2008).
